Key:
[1] = Exposure of powder as a thin layer in a controlled humidity cell; resulting crystalline form by x-ray diffraction; assay type: physicochemical; settings: 200 mg powder as thin layer
Experimental: As used herein in connection with the present invention, x-ray diffraction refers to x-ray diffraction by the powder diffraction technique. X-ray powder diffraction analysis was performed using a Scintag powder diffractometer with variable goniometer, a Cu source, and a solid state detector. A standard round aluminum sample holder with zero background quartz plate was used. Samples were scanned from 2° to 40° 2θ at 3° per minute in the continuous scan mode. Reflections are reported as peak maxima in the intensity vs. 2θ plots, and are subject to the normal experimental error (uncertainty). Samples were promptly analyzed “as is”.
In another embodiment, the present invention provides a method of making a mixture of novel crystalline form O and prior-art sesqihydrate. The ratios will depend, inter alia, on the conditions of treatment. The mixtures can be made by exposing prior art forms omega or TE, or crystalline form C (characterized by x-ray reflections at 7.2°, 10.8°, 15.8°, 21.8°, and 26.2°±0.2° 2θ) to an atmosphere having a relative humidity of at least about 60% (form c), or at least about 80% (form TE and omega) for an exposing time. The exposing time will generally be between about 24 hours and two weeks.
Preferably, the form omega, TE, or C is exposed as a thin layer of particles or crystals to facilitate diffusion of gasses and vapors. Preferably, the exposing is at ambient temperature.
The present invention can be further illustrated with the following non-limiting examples. In the following examples, the polymorphic or pseudopolymorphic form of gatifloxacin was determined by x-ray diffraction.
Gatifloxacin in form Ω (200 mg powder) was spread as a thin layer in a container having short vertical walls. The container was placed in a controlled humidity cell at 100% RH for 1 week.

[2] = reported in U.S. Pat. No. 5,880,283; cited from earlier work
[3] = reported in U.S. Pat. No. 5,880,283; cited from earlier work; remark: listed apart in the source
[4] = room temperature, among the crystalline forms, per WO 02/22126 A1; cited from earlier work
[5] = among the crystalline forms, per WO 02/22126 A1; cited from earlier work

SMILES: COc1c(N2CCNC(C)C2)c(F)cc2c(=O)c(C(=O)O)cn(C3CC3)c12 (stereo not drawn) [form TE, gatifloxacin]
- crystalline form found after humidity exposure ([1]; 80% RH, two weeks): approximately equal weight mixture (1:1) of form O and sesquihydrate
- crystalline form found after humidity exposure ([1]; 100% RH, two weeks): approximately equal weight (1:1) mixture of form O and sesquihydrate

SMILES: COc1c(N2CCNC(C)C2)c(F)cc2c(=O)c(C(=O)O)cn(C3CC3)c12 (stereo not drawn) [form Ω, gatifloxacin]
- crystalline form found after humidity exposure ([1]; 80% RH, 1 week): approximately equal weight (1:1) mixture of form O and form Ω
- crystalline form found after humidity exposure ([1]; 100% RH, 1 week): approximately equal weight (1:1) mixture of form O and sesquihydrate

SMILES: COc1c(N2CCNC(C)C2)c(F)cc2c(=O)c(C(=O)O)cn(C3CC3)c12 (stereo not drawn) [hemihydrate, gatifloxacin]
- hygroscopicity [2]: hygroscopic

SMILES: COc1c(N2CCNC(C)C2)c(F)cc2c(=O)c(C(=O)O)cn(C3CC3)c12 (stereo not drawn) [sesquihydrate, gatifloxacin]
- hygroscopicity [2]: less hygroscopic
- stability in manufacturing [3]: more stable

SMILES: COc1c(N2CCNC(C)C2)c(F)cc2c(=O)c(C(=O)O)cn(C3CC3)c12 (stereo not drawn) [form C, gatifloxacin]
- crystalline form found after humidity exposure ([1]; 60% RH, two weeks): approximately 80:20 mixture by weight of form C and form O
- crystalline form found after humidity exposure ([1]; 80% RH, two weeks): approximately 30:70 mixture by weight of form O and sesquihydrate
- crystalline form found after humidity exposure ([1]; 100% RH, two weeks): mixture of form O and sesquihydrate

SMILES: COc1c(N2CCNC(C)C2)c(F)cc2c(=O)c(C(=O)O)cn(C3CC3)c12 (stereo not drawn) [pentahydrate, gatifloxacin]
- aqueous solubility [4]: lowest
- thermodynamic stability [5]: most thermodynamically stable form

Source: patent US7411067B2, “Crystalline forms of gatifloxacin” (Teva Pharmaceutical Industries Ltd, priority 2002, dated 2008)
